According to publication PMC4727778, “Synthesis and Antifungal Evaluation of Novel N-Alkyl Tetra- and Perhydroquinoline Derivatives” (Scientia Pharmaceutica, 2014):
≈ marks a conversion by molar mass, not a printed value. Structures can show the parent of a compound that is named as a salt.

Key:
[1] = tested on: Aspergillus niger (DSMZ-Nr. 1988); test: Agar diffusion assay; assay type: cell-based; details: A. niger, GI = growth inhibition, read-out: diameter of zones of total inhibition
Procedure: (§1) The resulting compounds and known compounds, 1-undecylpiperidine (7) and 1-decylpiperazine (8a), as well as 1-methyl-4-undecylpiperazine (8b) (prepared in the same way), were tested in an agar diffusion assay against Gram-positive (Staphylococcus equorum (DSMZ-Nr. 20675), Streptococcus entericus (DSZM-Nr. 14446)) and Gram-negative bacteria (Escherichia coli (DSMZ-Nr. 426), Pseudomonas marginalis (DSMZ-Nr. 7527)), as well as the fungi Yarrowia lipolytica (DSMZ-Nr. 1345), Candida glabrata (DSMZ-Nr.11226), Aspergillus niger (DSMZ-Nr. 1988), and Hyphopichia burtonii (DSMZ-Nr. 70663) (Table 1).

[2] = tested on: Hyphopichia burtonii (DSMZ-Nr. 70663); test: Agar diffusion assay; assay type: cell-based; details: H. burtonii, GI = growth inhibition, read-out: diameter of zones of total inhibition
Procedure: as §1

[3] = tested on: Staphylococcus equorum (DSMZ-Nr. 20675); test: Agar diffusion assay; assay type: cell-based; details: read-out: diameter of zones of total inhibition
Procedure: as §1

[4] = tested on: Streptococcus entericus (DSZM-Nr. 14446); test: Agar diffusion assay; assay type: cell-based; details: S. entericus, GI = growth inhibition, read-out: diameter of zones of total inhibition
Procedure: as §1

[5] = tested on: Candida glabrata (DSMZ-Nr.11226); test: Agar diffusion assay; assay type: cell-based; details: Nakaseomyces glabratus, C. glabrata, GI = growth inhibition, read-out: diameter of zones of total inhibition
Procedure: as §1

[6] = tested on: Pseudomonas marginalis (DSMZ-Nr. 7527); test: Agar diffusion assay; assay type: cell-based; details: P. marginalis, GI = growth inhibition, read-out: diameter of zones of total inhibition
Procedure: as §1

[7] = tested on: Yarrowia lipolytica (DSMZ-Nr. 1345); test: Agar diffusion assay; assay type: cell-based; details: Y. lipolytica, GI = growth inhibition, read-out: diameter of zones of total inhibition
Procedure: as §1

[8] = tested on: Escherichia coli (DSMZ-Nr. 426); test: Agar diffusion assay; assay type: cell-based; details: E. coli, GI = growth inhibition, read-out: diameter of zones of total inhibition
Procedure: as §1

[9] = tested on: human leukemia cell line (HL 60); test: MTT test (cytotoxicity); assay type: cell-based; details: HL 60 cell line, arithmetic average of three determinations
Procedure: The cytotoxicity of the compounds 3a–d, 5a–d, and 8b was determined in an MTT test against a human leukemia cell line (HL 60).

Saccharomyces cerevisiae = test: Microdilution assay (MIC); assay type: cell-based; details: hydrochlorides used, arithmetic average of two determinations, read-out: Minimal inhibitory concentration (MIC)
Procedure: (§2) For comparison, the N-undecylperhydroisoquinoline (C) was also tested here. For solubility reasons, the hydrochlorides were used in this assay (Table 2).

Candida glabrata = test: Microdilution assay (MIC); assay type: cell-based; details: Nakaseomyces glabratus, hydrochlorides used, arithmetic average of two determinations, read-out: Minimal inhibitory concentration (MIC)
Procedure: as §2

Yarrowia lipolytica = test: Microdilution assay (MIC); assay type: cell-based; details: hydrochlorides used, arithmetic average of two determinations, read-out: Minimal inhibitory concentration (MIC)
Procedure: as §2

Structure (SMILES): CCCCCCCCCN1CCCc2ccccc21 [Compound 2a, 1-Nonyl-1,2,3,4-tetrahydroquinoline]
- zone of inhibition at 50 µg/disc [1]: 0 mm
- zone of inhibition at 50 µg/disc [2]: 0 mm
- zone of inhibition at 50 µg/disc [3]: 0 mm
- zone of inhibition at 50 µg/disc [4]: 0 mm
- zone of inhibition at 50 µg/disc [5]: 0 mm
- zone of inhibition at 50 µg/disc [6]: 0 mm
- zone of inhibition at 50 µg/disc [7]: 0 mm
- zone of inhibition at 50 µg/disc [8]: 0 mm

Structure (SMILES): CCCCCCCCCCCCN1CCCc2ccccc21 [Compound 2d, 1-Dodecyl-1,2,3,4-tetrahydroquinoline]
- zone of inhibition at 50 µg/disc [1]: 0 mm
- zone of inhibition at 50 µg/disc [2]: 0 mm
- zone of inhibition at 50 µg/disc [3]: 0 mm
- zone of inhibition at 50 µg/disc [4]: 0 mm
- zone of inhibition at 50 µg/disc [5]: 0 mm
- zone of inhibition at 50 µg/disc [6]: 0 mm
- zone of inhibition at 50 µg/disc [7]: 0 mm
- zone of inhibition at 50 µg/disc [8]: 0 mm

Structure (SMILES): CCCCCCCCCCCN1CCCc2ccccc21.Cl [Compound 3c, 1-Undecyl-1,2,3,4-tetrahydroquinoline hydrochloride]
- IC50 [9]: 16 µM
- melting point: 52 °C

Structure (SMILES): CN(C/C=C/C#CC(C)(C)C)Cc1cccc2ccccc12 [terbinafine, reference compound]
- zone of inhibition at 50 µg/disc [1]: 26 mm
- zone of inhibition at 50 µg/disc [2]: 15 mm
- zone of inhibition at 50 µg/disc [5]: 0 mm
- zone of inhibition at 50 µg/disc [7]: 12 mm

Structure (SMILES): CCCCCCCCCCCCN1CCC[C@@H]2CCCC[C@H]21 (racemic) [Compound 4d, (±)-trans-1-Dodecyldecahydroquinoline]
- zone of inhibition at 50 µg/disc [2]: 11 mm
- zone of inhibition at 50 µg/disc [3]: 9 mm
- zone of inhibition at 50 µg/disc [4]: 12 mm
- zone of inhibition at 50 µg/disc [5]: 9 mm
- zone of inhibition at 50 µg/disc [6]: 14 mm
- zone of inhibition at 50 µg/disc [7]: 9 mm
- zone of inhibition at 50 µg/disc [8]: 0 mm

Structure (SMILES): CCCCCCCCCCN1CCC[C@@H]2CCCC[C@H]21 (racemic) [Compound 5b, (±)-trans-1-Decyldecahydroquinoline hydrochloride]
- IC50 [9]: 7 µM
- MIC (Saccharomyces cerevisiae): 1 µg/mL
- MIC (Candida glabrata): 37.5 µg/mL
- MIC (Yarrowia lipolytica): 2.5 µg/mL

Structure (SMILES): CCCCCCCCCCCCN1CCC[C@@H]2CCCC[C@H]21 (racemic) (as salt: hydrochloride) [Compound 5d, (±)-trans-1-Dodecyldecahydroquinoline hydrochloride]
- melting point: 113 °C

Structure (SMILES): CCCCCCCCCN1CCC[C@@H]2CCCC[C@H]21 (racemic) [Compound 5a, (±)-trans-1-Nonyldecahydroquinoline hydrochloride]
- IC50 [9]: 22 µM
- MIC (Saccharomyces cerevisiae): 2.5 µg/mL
- MIC (Candida glabrata): 50 µg/mL
- MIC (Yarrowia lipolytica): 7.5 µg/mL

Structure (SMILES): CCCCCCCCCCCN1CCC[C@@H]2CCCC[C@H]21 (racemic) [Compound 4c, (±)-trans-1-Undecyldecahydroquinoline]
- zone of inhibition at 50 µg/disc [1]: 14 mm
- zone of inhibition at 50 µg/disc [2]: 13 mm
- zone of inhibition at 50 µg/disc [3]: 12 mm
- zone of inhibition at 50 µg/disc [4]: 20 mm
- zone of inhibition at 50 µg/disc [5]: 13 mm
- zone of inhibition at 50 µg/disc [6]: 11 mm
- zone of inhibition at 50 µg/disc [7]: 13 mm
- zone of inhibition at 50 µg/disc [8]: 0 mm

Structure (SMILES): CCCCCCCCCCCC(=O)N1CCCc2ccccc21 [Compound 6, N-Dodecanoyl-1,2,3,4-tetrahydroquinoline]
- melting point: 37 °C
- zone of inhibition at 50 µg/disc [1]: 0 mm
- zone of inhibition at 50 µg/disc [2]: 0 mm
- zone of inhibition at 50 µg/disc [3]: 0 mm
- zone of inhibition at 50 µg/disc [4]: 0 mm
- zone of inhibition at 50 µg/disc [5]: 0 mm
- zone of inhibition at 50 µg/disc [6]: 0 mm
- zone of inhibition at 50 µg/disc [7]: 0 mm
- zone of inhibition at 50 µg/disc [8]: 0 mm

Structure (SMILES): CCCCCCCCCCN1CCCc2ccccc21.Cl [Compound 3b, 1-Decyl-1,2,3,4-tetrahydroquinoline hydrochloride]
- IC50 [9]: 60 µM
- melting point: 61 °C

Structure (SMILES): CCCCCCCCCCCCN1CCCc2ccccc21.Cl [Compound 3d, 1-Dodecyl-1,2,3,4-tetrahydroquinoline hydrochloride]
- IC50 [9]: 15 µM
- melting point: 49 °C

Structure (SMILES): CCCCCCCCCN1CCC[C@@H]2CCCC[C@H]21 (racemic) (as salt: hydrochloride) [Compound 5a, (±)-trans-1-Nonyldecahydroquinoline hydrochloride]
- melting point: 130 °C

Structure (SMILES): CN(C)[C@@H]1C(O)=C(C(N)=O)C(=O)[C@@]2(O)C(O)=C3C(=O)c4c(O)cccc4[C@@](C)(O)[C@H]3C[C@@H]12 [tetracycline, reference compound]
- zone of inhibition at 50 µg/disc [1]: 0 mm
- zone of inhibition at 50 µg/disc [2]: 0 mm
- zone of inhibition at 50 µg/disc [3]: 30 mm
- zone of inhibition at 50 µg/disc [4]: 10 mm
- zone of inhibition at 50 µg/disc [5]: 0 mm
- zone of inhibition at 50 µg/disc [6]: 12 mm
- zone of inhibition at 50 µg/disc [7]: 0 mm
- zone of inhibition at 50 µg/disc [8]: 26 mm

Structure (SMILES): CCCCCCCCCCN1CCNCC1 [Compound 8a, 1-decylpiperazine, reference compound]
- zone of inhibition at 50 µg/disc [1]: 20 mm
- zone of inhibition at 50 µg/disc [2]: 25 mm
- zone of inhibition at 50 µg/disc [3]: 13 mm
- zone of inhibition at 50 µg/disc [4]: 17 mm
- zone of inhibition at 50 µg/disc [5]: 8 mm
- zone of inhibition at 50 µg/disc [6]: 8 mm
- zone of inhibition at 50 µg/disc [7]: 22 mm
- zone of inhibition at 50 µg/disc [8]: 7 mm
- MIC (Saccharomyces cerevisiae): 5 µg/mL (≈ 22.1 µM)
- MIC (Candida glabrata): 45 µg/mL (≈ 199 µM)
- MIC (Yarrowia lipolytica): 10 µg/mL (≈ 44.2 µM)

Structure (SMILES): CCCCCCCCCCN1CCCc2ccccc21 [Compound 2b, 1-Decyl-1,2,3,4-tetrahydroquinoline]
- zone of inhibition at 50 µg/disc [1]: 0 mm
- zone of inhibition at 50 µg/disc [2]: 0 mm
- zone of inhibition at 50 µg/disc [3]: 0 mm
- zone of inhibition at 50 µg/disc [4]: 0 mm
- zone of inhibition at 50 µg/disc [5]: 0 mm
- zone of inhibition at 50 µg/disc [6]: 0 mm
- zone of inhibition at 50 µg/disc [7]: 0 mm
- zone of inhibition at 50 µg/disc [8]: 0 mm

Structure (SMILES): CCCCCCCCCN1CCCc2ccccc21.Cl [Compound 3a, 1-Nonyl-1,2,3,4-tetrahydroquinoline hydrochloride]
- IC50 [9]: 19 µM
- melting point: 65 °C

Structure (SMILES): CCCCCCCCCCN1CCC[C@@H]2CCCC[C@H]21 (racemic) (as salt: hydrochloride) [Compound 5b, (±)-trans-1-Decyldecahydroquinoline hydrochloride]
- melting point: 128 °C

Structure (SMILES): CCCCCCCCCCCN1CCC[C@@H]2CCCC[C@H]21 (racemic) (as salt: hydrochloride) [Compound 5c, (±)-trans-1-Undecyldecahydroquinoline hydrochloride]
- melting point: 119 °C

Structure (SMILES): CCCCCCCCCCN1CCC[C@@H]2CCCC[C@H]21 (racemic) [Compound 4b, (±)-trans-1-Decyldecahydroquinoline]
- zone of inhibition at 50 µg/disc [1]: 12 mm
- zone of inhibition at 50 µg/disc [2]: 20 mm
- zone of inhibition at 50 µg/disc [3]: 13 mm
- zone of inhibition at 50 µg/disc [4]: 22 mm
- zone of inhibition at 50 µg/disc [5]: 16 mm
- zone of inhibition at 50 µg/disc [6]: 15 mm
- zone of inhibition at 50 µg/disc [7]: 19 mm
- zone of inhibition at 50 µg/disc [8]: 0 mm

Structure (SMILES): CCCCCCCCCN1CCC[C@@H]2CCCC[C@H]21 (racemic) [Compound 4a, (±)-trans-1-Nonyldecahydroquinoline]
- zone of inhibition at 50 µg/disc [1]: 7 mm
- zone of inhibition at 50 µg/disc [2]: 12 mm
- zone of inhibition at 50 µg/disc [3]: 10 mm
- zone of inhibition at 50 µg/disc [4]: 20 mm
- zone of inhibition at 50 µg/disc [5]: 14 mm
- zone of inhibition at 50 µg/disc [6]: 13 mm
- zone of inhibition at 50 µg/disc [7]: 15 mm
- zone of inhibition at 50 µg/disc [8]: 0 mm

Structure (SMILES): CCCCCCCCCCCN1CCCc2ccccc21 [Compound 2c, 1-Undecyl-1,2,3,4-tetrahydroquinoline]
- zone of inhibition at 50 µg/disc [1]: 0 mm
- zone of inhibition at 50 µg/disc [2]: 0 mm
- zone of inhibition at 50 µg/disc [3]: 0 mm
- zone of inhibition at 50 µg/disc [4]: 0 mm
- zone of inhibition at 50 µg/disc [5]: 0 mm
- zone of inhibition at 50 µg/disc [6]: 0 mm
- zone of inhibition at 50 µg/disc [7]: 0 mm
- zone of inhibition at 50 µg/disc [8]: 0 mm
